Test systems include EKVX NSCLC; SF-539 CNS; COLO 205 colon; MOLT-4 leukemia; RXF 393 renal; HOP-92 NSCLC; DLD-1 colon; XF 498 CNS; NCI/ADR-RES ovarian; MDA-MB-231 breast.
Test in all cases: NCI tumour cell line growth inhibition, 48 h

Values joined by “and” are separate entries in the source; they are usually repeats but may differ in a detail not shown here. Equal entries are not always repeated.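 Compound exposure: 48 hours, 5 concentrations, 96-well plates. GI50 is the concentration that inhibits growth by half. TGI is the concentration that stops growth completely.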 Bounds are passed on as bounds.

Consider 17 compounds from PubChem BioAssay (NCI).

In the case of `COc1cc(/C=N/N=C(\N)NO)ccc1O`, the TGI in the test on EKVX NSCLC, in the test on SF-539 CNS, in the test on COLO 205 colon, in the test with MOLT-4 leukemia, in the test on RXF 393 renal and in the test with HOP-92 NSCLC was over 100 µM in each case. The TGI in the test with DLD-1 colon was over 100 µM.

Consider `CCN(CC)CCCC(C)Nc1c2ccc(Cl)cc2nc2cc(Cl)ccc12` (configuration not stated), for which the TGI in the test with XF 498 CNS is 9.64 µM; in the test on EKVX NSCLC, 29.8 µM; in the test with SF-539 CNS, 15.6 µM; in the test on COLO 205 colon, 5.01 µM; in the test with MOLT-4 leukemia, 5.31 µM; in the test on RXF 393 renal, 13.2 µM. For the same compound, the values for the TGI in the test with HOP-92 NSCLC and with DLD-1 colon were 9.64 µM and 9.38 µM, respectively.

In the case of `CC(C)C(=O)Nc1ccc(-c2nc(-c3cccc(OCCN4CCOCC4)c3)c(-c3ccnc(Br)c3)[nH]2)cc1`, the GI50 with EKVX NSCLC was 4.01 µM; in the test on SF-539 CNS, 2.3 µM; in the test with COLO 205 colon, 2.42 µM; in the test with NCI/ADR-RES ovarian, 6.23 µM; in the test on MOLT-4 leukemia it was 2.31 µM; in the test with MDA-MB-231 breast it was 3.66 µM. In addition, the GI50 with RXF 393 renal was 1.24 µM; in the test on HOP-92 NSCLC it was 2.32 µM. Besides, the TGI in the test on EKVX NSCLC is over 100 µM; in the test on SF-539 CNS it was 8.65 µM; with COLO 205 colon, 6.59 µM; in the test with NCI/ADR-RES ovarian, over 100 µM; in the test with MOLT-4 leukemia, over 100 µM; in the test with MDA-MB-231 breast, over 100 µM. Further, the TGI amounted to 2.91 µM in the test on RXF 393 renal and 7.68 µM in the test with HOP-92 NSCLC.

For `OC(c1ccccc1)C1CC2C=CC1C2` (configuration not stated), the TGI in the test on XF 498 CNS, with EKVX NSCLC, in the test on SF-539 CNS, in the test with COLO 205 colon, in the test on MOLT-4 leukemia and in the test on RXF 393 renal was over 100 µM each time. The TGI in the test with HOP-92 NSCLC and in the test on DLD-1 colon was over 100 µM throughout.

With `CN(CC(=O)O)CC(=O)O`, the TGI in the test with EKVX NSCLC, with SF-539 CNS, in the test on COLO 205 colon, in the test on NCI/ADR-RES ovarian, with MOLT-4 leukemia and in the test with MDA-MB-231 breast was over 100 µM each time. Besides, the TGI in the test on RXF 393 renal and with HOP-92 NSCLC was over 100 µM throughout.

Turning to `COc1ccc(N2C(=O)C(=O)N(C)C2=O)c2ccccc12`, the TGI with EKVX NSCLC, with SF-539 CNS, in the test on COLO 205 colon, with NCI/ADR-RES ovarian, in the test on MOLT-4 leukemia and with MDA-MB-231 breast was over 10 µM in each case. Also, the TGI in the test with RXF 393 renal was over 10 µM.

In the case of `COC1=CC(=O)c2c(c(COC(C)=O)cn2C)C1=O`, the TGI in the test on EKVX NSCLC came out at 0.727 µM; in the test with SF-539 CNS, 0.313 µM; with COLO 205 colon, 0.0943 µM; in the test on NCI/ADR-RES ovarian it was 0.295 µM; in the test with MOLT-4 leukemia, 0.653 µM; in the test with MDA-MB-231 breast, 1.08 µM. In addition, the TGI with RXF 393 renal was 0.309 µM; with HOP-92 NSCLC it was 0.822 µM.

For the compound `CC[C@@]1(O)C(=O)OCc2c1cc1n(c2=O)Cc2cc3c(CN(C)C)c(O)ccc3nc2-1`, the GI50 was 0.585 µM with XF 498 CNS; 0.452 µM and 0.468 µM and 2.16 µM in the test on EKVX NSCLC; < 0.01 µM and 0.00383 µM and 0.0215 µM in the test on SF-539 CNS; 0.384 µM and 0.089 µM and 0.855 µM with COLO 205 colon; 0.0737 µM and 0.355 µM and 0.105 µM with NCI/ADR-RES ovarian; < 0.01 µM and 0.00317 µM in the test with MOLT-4 leukemia. Further, the GI50 in the test with MDA-MB-231 breast was 0.847 µM and 0.393 µM and 3.22 µM; in the test on RXF 393 renal, 0.0188 µM and 0.0182 µM and 0.0775 µM. Further, the TGI is 4.85 µM [middle of 4 runs] with COLO 205 colon; 3.22 µM and 19.7 µM and 4.78 µM in the test with NCI/ADR-RES ovarian.

Regarding `CC1(CO)C(O)CCC2(C)C1C(O)CC1CC3CC12CCC3(O)CO` (configuration not stated), the TGI in the test with XF 498 CNS is over 225 µM; with EKVX NSCLC, over 225 µM; in the test on SF-539 CNS, over 225 µM; in the test with COLO 205 colon, over 225 µM; in the test with NCI/ADR-RES ovarian, over 225 µM; with MOLT-4 leukemia it was over 141 µM. Besides, the TGI with RXF 393 renal, in the test on HOP-92 NSCLC and in the test on DLD-1 colon was over 225 µM in each case.

Regarding `Clc1ccc(C2CC(c3cccc(Nc4ccncc4)c3)=NN2c2ccccc2)cc1` (configuration not stated), the GI50 was 1.58 µM in the test with EKVX NSCLC; 1.7 µM in the test with SF-539 CNS; 1.96 µM in the test on COLO 205 colon; 1.83 µM in the test with MOLT-4 leukemia; 1.7 µM in the test with MDA-MB-231 breast; 1.67 µM in the test with RXF 393 renal. In the test with HOP-92 NSCLC, the GI50 is 1.4 µM. The TGI with EKVX NSCLC was 3.12 µM; with SF-539 CNS, 3.09 µM; in the test with COLO 205 colon it was 4.5 µM; in the test with MOLT-4 leukemia, 4.32 µM; with MDA-MB-231 breast, 3.21 µM; in the test with RXF 393 renal, 3.08 µM. The compound also registered a TGI in the test on HOP-92 NSCLC of 2.82 µM.

In the case of `O=c1ccc2c(Cl)cccc2o1`, the TGI in the test on EKVX NSCLC, in the test on SF-539 CNS, in the test on COLO 205 colon, in the test with NCI/ADR-RES ovarian, with MOLT-4 leukemia and with MDA-MB-231 breast was over 100 µM in each case. Besides, the TGI in the test on RXF 393 renal and in the test on HOP-92 NSCLC was over 100 µM in each case.

On to `CNCCCn1c2c(c3ccc(Cl)cc3c1=O)C(=O)c1cc(OC)cnc1-2`, for which the GI50 in the test on NCI/ADR-RES ovarian is 0.536 µM; with MDA-MB-231 breast, 1.62 µM; in the test on RXF 393 renal, 1.3 µM; in the test on HOP-92 NSCLC, 1.19 µM. For the same compound, the TGI in the test on NCI/ADR-RES ovarian came to 2.91 µM; in the test on MDA-MB-231 breast, 3.54 µM; with RXF 393 renal it was 2.84 µM; in the test with HOP-92 NSCLC it was 2.75 µM.

On to `CC(C)NC(=O)OCc1nnn2c1CCC2`, for which the TGI in the test with XF 498 CNS, with EKVX NSCLC, in the test on SF-539 CNS, in the test on MOLT-4 leukemia, in the test on RXF 393 renal and with HOP-92 NSCLC was over 100 µM in each case. The TGI with DLD-1 colon is over 100 µM.

Regarding `CSC1=C(SC)C(=O)c2cn(C)c(=O)cc2C1=O`, the TGI with EKVX NSCLC is 33.6 µM; in the test with SF-539 CNS, 25.3 µM; in the test with COLO 205 colon, 2.89 µM; with NCI/ADR-RES ovarian, over 100 µM; in the test on MOLT-4 leukemia it was 3.52 µM; in the test with MDA-MB-231 breast it was 3.7 µM. For the same compound, the TGI in the test with RXF 393 renal amounted to 3.43 µM; in the test on HOP-92 NSCLC, 2.12 µM.

As to `CC(C(=O)NCCNC(=O)CCCC(=O)N(C)O)C(=O)NCCNC(=O)CCCC(=O)N(C)O`, the TGI with EKVX NSCLC, with COLO 205 colon, in the test on NCI/ADR-RES ovarian, with MOLT-4 leukemia, with MDA-MB-231 breast and with RXF 393 renal was over 100 µM in each case. Besides, the TGI in the test with HOP-92 NSCLC is over 100 µM.

With `CC(C)=CC1C(COC(=O)c2ccccc2Cl)C1(C)C` (configuration not stated), the TGI in the test with EKVX NSCLC is 92.6 µM; in the test with NCI/ADR-RES ovarian, over 100 µM; in the test with MOLT-4 leukemia, over 100 µM; in the test with MDA-MB-231 breast, over 100 µM; in the test with RXF 393 renal it was 65.6 µM; in the test with HOP-92 NSCLC it was 86.3 µM.

Take `C1=Nc2ccccc2Cn2nncc21`: the TGI with XF 498 CNS, with EKVX NSCLC, in the test with SF-539 CNS, in the test with COLO 205 colon, in the test on MOLT-4 leukemia and in the test on RXF 393 renal was over 100 µM in each case. Also, the TGI in the test with HOP-92 NSCLC and in the test with DLD-1 colon was over 100 µM each time.
